In patent US12678436B2, “Pharmaceutical composition for preventing or treating fibrosis” (Daewoong Pharmaceutical Co., Ltd., priority 2021, dated 2026):

How the values were obtained:
ICR mice = experiment: 2-week repeated dose toxicity test in mice; type: in vivo; details: for SPLEEN % to BODY WEIGHT / SPLEEN weight / THYMUS % to BODY WEIGHT / THYMUS weight: 2 weeks, male ICR mice
Method: The active component was orally administered to acclimatized ICR mice for 7 days or more for 2 weeks.
After administration for 2 weeks, autopsies were performed on all animals. At autopsy, the weight of each organ was measured.

[1] = Measurement of change in body weight in BLM-administered mice; type: in vivo; details: for change in body weight: 21st day
Method: (§1) 70-100 μL of BLM solution (bleomycin 1-3 mg/kg) was administered to a lung of the acclimatized experimental animals using a catheter for 5 days or more. In accordance with the purpose of the test, the test drug was administered 7 days after BLM administration, and the drug was orally administered for 2 weeks until the 21st day of BLM administration. Body weight, SpO2, hydroxyproline, and inflammation cell counts were measured to determine the anti-fibrotic efficacy of the active component.
(§2) As a control group, Nintedanib (hereinafter ‘NIN’) and Pirfenidone (hereinafter ‘PID’), which are standard of care (hereinafter ‘SoC’) for idiopathic pulmonary fibrosis, were used. The effective dose of NIN used was confirmed through in vivo efficacy data in the literature published by Boehringer Ingelheim, which is a NIN development company, and the effective dose of PID was set in terms of mice based on in vivo efficacy (rat) data and 2-week repeated toxicity dose (rat) in FDA Pharmacology Review.
Body weight is an indirect indicator that can know the degree of improvement in the overall physical condition of the animal model. When the degree of weight loss is small, it can be inferred that the overall physical condition or symptoms of the disease are improved.
The body weight was measured using a scale on the 21st day when the administration was completed, and the results are shown in Table 6 and FIG. 5 below.

[2] = tested on: animal model of pulmonary fibrosis; experiment: Inflammation cell count analysis in BALF; type: in vivo, mice; details: for Lymphocyte (BALF cell count) / Macrophage (BALF cell count) / Neutrophil (BALF cell count) / Total cell (BALF cell count): 21st day
Method: as §1, §2
Since fibrosis is a chronic inflammatory disease characterized by excessive collagen deposition, the infiltration of inflammatory cells was analyzed to determine the degree of inflammation in the lung tissue.
At the sacrifice on the 21st day of administration, BALF (Bronchoalveolar lavage fluid) cells obtained through airway washing of mice were diluted with 1.05×PBS and attached to a slide, and then the slide was immersed and removed for 30 seconds in the order of 1, 2, 3 diff quick stain solution, and stained. It was counted based on 500 cells. Macrophages are the largest in size, mononuclear, and stained blue. Neutrophils and eosinophils form polynuclear cells, but eosinophils are stained red with eosin and distinguished from neutrophils. Lymphocytes have very less cytoplasm and are small in size as monocytes.

[3] = tested on: animal model of pulmonary fibrosis; experiment: Lung function evaluation (SpO2) in BLM-administered mice; type: in vivo; details: for SpO2: 2 weeks, 21st day after BLM
Method: as §1, §2
This lung function evaluation is the most direct and important evaluation index that has the greatest influence on the symptoms and quality of life of patients with pulmonary fibrosis, and is an experiment that can most directly show the effect of improving lung function in an animal model of pulmonary fibrosis by measuring the oxygen concentration in the body.
On the 21st day, it was measured with a SpO2 measuring device (Berry, Veterinary Pulse Oximeter) via the abdominal side of the mouse, and the results are shown in Table 2 and FIG. 1.

[4] = tested on: animal model of pulmonary fibrosis; experiment: Measurement of total collagen content in lung (INSOLUBLE Collagen Assay); type: in vivo, mice; details: for collagen content in lung (hydroxyproline ratio value compared with normal group): 21st day
Method: as §1, §2
Pulmonary fibrosis is the accumulation of collagen in the lungs to make it stiff. The main cause of pulmonary fibrosis is the accumulation of collagen, and the degree of progression of fibrosis can be predicted by measuring the collagen content in the lung tissue.
In this experimental example, analysis was performed using INSOLUBLE Collagen Assay (Biocolor, S2000). After sacrifice on the 21st day, the cryopreserved lung tissue was pulverized by adding 100 uL of Fragmentation Reagent, and then, 100 uL of 37% HCl was added and incubated at 65°C. for 3 hours. The contents of the tube were shaken at 30 minute intervals to aid tissue disintegration. After centrifugation, the concentration was adjusted to 100 μL and collagen staining was proceeded to prepare a sample. Absorbance was measured at 560 nm.

[5] = Human pharmacokinetics, multiple administration (MAD), Day 14; type: in vivo; details: for Accumulation ratio based on AUCT: Day 14, N = 6; for AUC(0-t): human, plasma, oral
Method: (§3) The formulation used in the clinical trial was prepared in the same manner as in Preparation Examples 1 and 2.

[6] = Pharmacokinetic test after single oral administration in ICR mice; type: in vivo; details: mouse, blood; ICR mice (male), single oral 10 mg/kg, saline
Method: The pharmacokinetic parameters were calculated using Excel® and WinNonlin6.1 software for the blood drug concentration according to the change over time obtained through LC-MS/MS, and changes in the blood concentration of the active component are shown in Table 9 and FIG. 6.

healthy adults = experiment: Human administration safety/drug tolerance; type: in vivo
Method: as §3
The safety and drug resistance of the compound of the present invention during administration to humans was confirmed in the same manner as in Experimental Example 4.

[7] = Human pharmacokinetics, single administration (SAD); type: in vivo; details: median; healthy adults, single oral 500 mg, enteric coated tablet, N = 6
Method: as §3

[8] = tested on: animal model of pulmonary fibrosis; experiment: Histopathology (Ashcroft score) analysis of lung tissue; type: in vivo, mice; details: for Fibrotic Index (±SEM): 21st day, 9 individuals
Method: as §1, §2
The degree of fibrosis and inflammation of the lung tissue were visually observed through a microscope, and the degree of fibrosis of lung tissue was measured with a Fibrotic Index according to normalized criteria. The higher the Fibrotic Index value, the more severe the degree and symptom of fibrosis. It is interpreted that as the value is lower, the symptom is relieved.
On the 21st day, lung tissue was separated and stained using H&E and MT stain, and observed at 200× magnification. The observed results were scored by Ashcroft (Hubner et al., 2008). The fibrotic index was calculated by dividing the sum of the adjusted Ashcroft field scores by the number of fields tested, and shown in Table 4 and FIG. 3.

## O[C@H]1CCCN[C@@H]1CCCn1cnc2c(Cl)c(Cl)ccc21 [Active component]
ICR mice; 30 mg/kg/day oral
  SPLEEN % to BODY WEIGHT: 0.22%
  SPLEEN weight: 0.059
  THYMUS % to BODY WEIGHT: 0.10%
  THYMUS weight: 0.026
ICR mice; 60 mg/kg/day oral
  SPLEEN % to BODY WEIGHT: 0.25%
  SPLEEN weight: 0.070
  THYMUS % to BODY WEIGHT: 0.11%
  THYMUS weight: 0.029
ICR mice; 30, 60, 120→90 mg/kg/day oral, ICR mice
  toxicity / abnormal symptoms after repeated administration for 2 weeks: No toxicity or significant abnormal symptoms
ICR mice; 120→90 mg/kg/day oral
  SPLEEN % to BODY WEIGHT: 0.17%
  SPLEEN weight: 0.046
  THYMUS % to BODY WEIGHT: 0.05%
  THYMUS weight: 0.015
ICR mice; administration group of 30 mg/kg/day or more
  organ weight of spleen and thymus: slight weight loss tendency
[1]; 10 mg/kg
  degree of body weight loss compared with Vehicle group: improved
[1]; 30 mg/kg
  degree of body weight loss compared with Vehicle group: improved
[1]; Active component 3 mg/kg oral
  change in body weight: −22.44
[1]; Active component 10 mg/kg oral
  change in body weight: −19.11
[1]; Active component 30 mg/kg oral
  change in body weight: −16.78
[2]; 10 mg/kg
  number of Neutrophil cells decreased compared to Vehicle: ≥ 20%
  total cell level improved compared to Vehicle: ≥ 20%
[2]; 30 mg/kg
  number of Neutrophil cells decreased compared to Vehicle: ≥ 60%
  total cell level improved compared to Vehicle: ≥ 30%
[2]; Active component 3 mg/kg oral
  Lymphocyte (BALF cell count): 0.79
  Macrophage (BALF cell count): 7.80
  Neutrophil (BALF cell count): 1.74
  Total cell (BALF cell count): 10.32
[2]; Active component 10 mg/kg oral
  Lymphocyte (BALF cell count): 0.51
  Macrophage (BALF cell count): 5.60
  Neutrophil (BALF cell count): 1.54
  Total cell (BALF cell count): 7.66
[2]; Active component 30 mg/kg oral
  Lymphocyte (BALF cell count): 0.46
  Macrophage (BALF cell count): 4.91
  Neutrophil (BALF cell count): 0.82
  Total cell (BALF cell count): 6.19
[3]; 10 mg/kg
  oxygen permeation function improved compared with Vehicle: ≥ 18%
[3]; 30 mg/kg
  oxygen permeation function improved compared with Vehicle: ≥ 28%
[3]; Active component 3 mg/kg oral
  SpO2: 75.00
[3]; Active component 10 mg/kg oral
  SpO2: 77.89
[3]; Active component 30 mg/kg oral
  SpO2: 81.33
[4]; 10 mg/kg
  content of collagen in the lung compared to Vehicle: significantly reduced
[4]; 30 mg/kg
  content of collagen in the lung compared to Vehicle: significantly reduced
[4]; Active component 3 mg/kg oral
  collagen content in lung (hydroxyproline ratio value compared with normal group): 253.56
[4]; Active component 10 mg/kg oral
  collagen content in lung (hydroxyproline ratio value compared with normal group): 217.22
[4]; Active component 30 mg/kg oral
  collagen content in lung (hydroxyproline ratio value compared with normal group): 171.33
[5]; 25 mg tablet twice a day
  Accumulation ratio based on AUCT: 1.94
[5]; 50 mg tablet twice a day
  Accumulation ratio based on AUCT: 2.33
[5]; 100 mg tablet twice a day, Day 14, 12 hour dosing interval, N = 6
  AUCT: 617.40 ng·h/mL
[5]; 100 mg tablet twice a day
  Accumulation ratio based on AUCT: 1.88
[5]; 200 mg tablet twice a day
  Accumulation ratio based on AUCT: 3.75
[5]; 25 mg tablet twice a day, Day 14, 12 hour dosing interval, N = 6
  AUC(0-t): 183 ng·h/mL
[5]; 50 mg tablet twice a day, Day 14, 12 hour dosing interval, N = 6
  AUC(0-t): 429 ng·h/mL
[5]; 200 mg tablet twice a day, Day 14, 12 hour dosing interval, N = 6
  AUC(0-t): 3010 ng·h/mL
[6]
  AUC: 1190 ng·h/mL
Healthy adults; 72 healthy adults, single 100-600 mg and multiple 25-200 mg twice a day
  serious abnormal signs or side effects in clinical trial: no serious abnormal signs or side effects
Healthy adults; single administration, healthy adults
  most frequent adverse reactions: gastrointestinal adverse events including nausea, vomiting, diarrhea and abdominal pain
[7]
  tmax: 3.01 h
[8]; 10 mg/kg
  tissue improvement effect compared with NIN and PID: tissue improvement effect equivalent to or greater than that of NIN
[8]; 30 mg/kg
  tissue improvement effect compared with NIN and PID: tissue improvement effect equivalent to or greater than that of NIN
[8]; Active component 3 mg/kg oral
  Fibrotic Index (±SEM): 4.6 (±0.3)
[8]; Active component 10 mg/kg oral
  Fibrotic Index (±SEM): 2.7 (±0.6)
[8]; Active component 30 mg/kg oral
  Fibrotic Index (±SEM): 2.8 (±0.4)

## Cc1ccc(=O)n(-c2ccccc2)c1 [Pirfenidone, reference compound]
[1]; Pirfenidone 200 mg/kg oral
  change in body weight: −14.67
[2]; Pirfenidone 200 mg/kg oral
  Lymphocyte (BALF cell count): 0.46
  Macrophage (BALF cell count): 5.01
  Neutrophil (BALF cell count): 0.68
  Total cell (BALF cell count): 6.14
[3]; Pirfenidone 200 mg/kg oral
  SpO2: 82.00
[4]; Pirfenidone 200 mg/kg oral
  collagen content in lung (hydroxyproline ratio value compared with normal group): 177.44
[8]; Pirfenidone 200 mg/kg oral
  Fibrotic Index (±SEM): 4.1 (±0.3)

## COC(=O)c1ccc2c(c1)NC(=O)/C2=C(\Nc1ccc(N(C)C(=O)CN2CCN(C)CC2)cc1)c1ccccc1 [Nintedanib, reference compound]
[1]; Nintedanib 60 mg/kg oral
  change in body weight: −19.44
[2]; Nintedanib 60 mg/kg oral
  Lymphocyte (BALF cell count): 0.68
  Macrophage (BALF cell count): 5.61
  Neutrophil (BALF cell count): 1.29
  Total cell (BALF cell count): 7.57
[3]; Nintedanib 60 mg/kg oral
  SpO2: 78.67
[4]; Nintedanib 60 mg/kg oral
  collagen content in lung (hydroxyproline ratio value compared with normal group): 239.78
[8]; Nintedanib 60 mg/kg oral
  Fibrotic Index (±SEM): 3.1 (±0.6)
